# Reference: US12084436B2, “Heterocyclic compound” (Takeda Pharmaceutical Company Limited, priority 2019, dated 2024)
# Target: T1, HDAC6 enzyme (Homo sapiens, UniProt Q9UBN7)
# T1 construct: prepared by transducing full length HDAC6 gene into Sf-9 insect cells; GST; purchased SignalChem; host or cells: Sf-9 insect cells
# T1 sequence (Q9UBN7 1-1215): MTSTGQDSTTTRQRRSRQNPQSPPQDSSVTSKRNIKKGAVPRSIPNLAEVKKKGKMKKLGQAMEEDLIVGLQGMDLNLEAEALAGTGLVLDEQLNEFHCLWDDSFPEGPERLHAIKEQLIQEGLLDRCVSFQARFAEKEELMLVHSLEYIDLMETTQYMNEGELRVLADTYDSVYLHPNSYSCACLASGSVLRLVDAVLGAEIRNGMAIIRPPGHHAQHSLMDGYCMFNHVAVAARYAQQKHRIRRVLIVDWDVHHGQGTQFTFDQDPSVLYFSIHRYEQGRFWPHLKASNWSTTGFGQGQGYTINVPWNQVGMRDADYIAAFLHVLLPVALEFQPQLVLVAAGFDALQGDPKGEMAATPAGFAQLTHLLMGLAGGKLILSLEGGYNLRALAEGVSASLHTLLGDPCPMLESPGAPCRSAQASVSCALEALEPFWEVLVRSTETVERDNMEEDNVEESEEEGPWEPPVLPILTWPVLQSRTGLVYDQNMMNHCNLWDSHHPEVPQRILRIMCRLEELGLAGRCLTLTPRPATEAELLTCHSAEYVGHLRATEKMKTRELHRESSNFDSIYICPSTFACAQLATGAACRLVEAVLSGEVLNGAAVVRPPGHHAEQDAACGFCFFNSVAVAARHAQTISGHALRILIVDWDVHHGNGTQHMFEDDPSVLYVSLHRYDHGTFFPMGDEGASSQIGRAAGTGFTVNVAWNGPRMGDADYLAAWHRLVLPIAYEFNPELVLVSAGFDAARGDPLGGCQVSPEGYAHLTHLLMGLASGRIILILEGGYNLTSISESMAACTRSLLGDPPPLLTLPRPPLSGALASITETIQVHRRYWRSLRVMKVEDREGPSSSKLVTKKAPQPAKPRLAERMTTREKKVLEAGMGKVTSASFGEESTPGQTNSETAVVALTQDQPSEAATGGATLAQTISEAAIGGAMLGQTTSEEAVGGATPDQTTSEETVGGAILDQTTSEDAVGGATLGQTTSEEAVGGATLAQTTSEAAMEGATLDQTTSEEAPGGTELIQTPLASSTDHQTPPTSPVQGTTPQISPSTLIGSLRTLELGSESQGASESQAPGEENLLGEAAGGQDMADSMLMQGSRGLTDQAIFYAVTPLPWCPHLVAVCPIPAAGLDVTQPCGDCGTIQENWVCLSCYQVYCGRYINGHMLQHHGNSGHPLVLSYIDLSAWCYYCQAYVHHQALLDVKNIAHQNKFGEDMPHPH
# Experiment: HDAC6 enzyme inhibitory assay (HDAC-Glo I/II Assay kit, luminescence)
# Assay type: biochemical
# Conditions: 10 μM test compound; wells without enzyme = 100% inhibition; read-out: HDAC6 inhibitory rate (%) (10 μM)
# Summary of the method: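 Full-length human HDAC6, GST-purified from Sf-9 cells, was preincubated with compound for 60 min at room temperature in Tris-HCl pH 7.5 buffer with glutathione and Tween-20. Substrate-developer was then added, and luminescence was read after 20 min at room temperature. Inhibition was expressed relative to no-enzyme wells, taken as 100% inhibition.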
row,inhibition at 10 µM [%],Structure (SMILES)
1,90,"O=C1c2cc(-c3nnc(C(F)F)o3)ccc2CN1NCC(F)(F)F [Example 31c, 6-[5-(difluoromethyl)-1,3,4-oxadiazol-2-yl]-2-[(2,2,2-trifluoroethyl)amino]-2,3-dihydro-1H-isoindol-1-one]"
2,94,"CN(C1CC1)N1Cc2ccc(-c3nnc(C(F)F)o3)cc2C1=O [Example 66c, 2-[cyclopropyl(methyl)amino]-6-[5-(difluoromethyl)-1,3,4-oxadiazol-2-yl]-2,3-dihydro-1H-isoindol-1-one]"
3,100,"CN1C(=O)c2cc(-c3nnc(C(F)F)o3)ccc2OC1(C)c1ccc(Cl)cc1 (stereo not shown) [Example 26b, 2-(4-chlorophenyl)-6-[5-(difluoromethyl)-1,3,4-oxadiazol-2-yl]-2,3-dimethyl-2,3-dihydro-4H-1,3-benzoxazin-4-one]"
4,101,"O=C1NN(c2ccc(F)cc2)Cc2ncc(-c3nnc(C(F)F)o3)cc21 [Example 3b, 3-[5-(difluoromethyl)-1,3,4-oxadiazol-2-yl]-7-(4-fluorophenyl)-7,8-dihydropyrido[2,3-d]pyridazin-5(6H)-one]"
5,100,"CN(Cc1ccccc1N1CCOCC1)N1Cc2ccc(-c3nnc(C(F)F)o3)cc2C1=O [Example 58c, 6-[5-(difluoromethyl)-1,3,4-oxadiazol-2-yl]-2-(methyl{[2-(morpholin-4-yl)phenyl]methyl}amino)-2,3-dihydro-1H-isoindol-1-one]"
6,99,"FC(F)c1nnc(-c2cncc(-c3nccn3Cc3ccccc3)c2)o1 [Example 37a, 3-(1-benzyl-1H-imidazol-2-yl)-5-[5-(difluoromethyl)-1,3,4-oxadiazol-2-yl]pyridine]"
7,101,"CN(Cc1ccccc1Oc1cnccn1)N1Cc2ccc(-c3nnc(C(F)F)o3)cc2C1=O [Example 59c, 6-[5-(difluoromethyl)-1,3,4-oxadiazol-2-yl]-2-[methyl({2-[(pyrazin-2-yl)oxy]phenyl}methyl)amino]-2,3-dihydro-1H-isoindol-1-one]"
8,99,"CN(CC1CCOCC1)N1Cc2ccc(-c3nnc(C(F)F)o3)cc2C1=O [Example 41c, 6-[5-(difluoromethyl)-1,3,4-oxadiazol-2-yl]-2-{methyl[(oxan-4-yl)methyl]amino}-2,3-dihydro-1H-isoindol-1-one]"

# Tested on: tauopathy mouse model
# Experiment: not given
# Conditions: cited from earlier work
Structure (SMILES),acetylation of tubulin,therapeutic effectiveness
CN1CCc2c(c3ccccc3n2Cc2ccc(C(=O)NO)cc2)C1 [Tubastatin A],increases acetylation of tubulin,shows therapeutic effectiveness
